Data from publication PMC9646721, “Alkaloid binding to opium poppy major latex proteins triggers structural modification and functional aggregation” (Nature Communications, 2022).
“And” between values parts separate entries of the source, which are not always exact repeats. Equal values may be shown once.

Experiments:
NISO [1] = target: T1, NISO (Papaver somniferum, UniProt P0DYP9); set-up: made in house; host or cells: E. coli ArcticExpress (DE3); details: read-out: Km app (substrate kinetics); cited from earlier work
NISO [2] = target: T1, NISO; assay: ANS fluorescence binding curve (direct ANS-protein affinity); set-up: made in house; host or cells: E. coli ArcticExpress (DE3); details: Kd (ANS-protein, apparent), ANS 10 µM fixed, protein 0 to 100 µM; CBS pH 5.5; one-site hyperbolic model
Experimental: (§1) 8-anilino-1-naphthalenesulfonic acid (ANS) fluorescence binding curves and the binding-induced reduction in ANS fluorescence resulting from competition with tested ligands across a range of concentration facilitated the measurement of IC50 and an estimate of Kd values using the binding models and procedures described previously[70]. […] ANS was dissolved in dimethylsufoxide at a concentration of 20 mM, stored at −20 °C until dilution and protected from exposure to light. […] 40 µl of the ANS solution and 40 µl of each MLP/PR10 protein solution were combined to 80 µl final reaction volumes, which were incubated at 21 °C for 10 min to allow equilibration of binding. […] An identical reaction series whereby protein was omitted from the mixtures was measured under identical conditions and trace fluorescence was subtracted from each MLP/PR10 protein-containing sample. Each data set was scaled so that the maximum observed fluorescence corresponded to 100% and individual data points were plotted, and a rectangular hyperbolic ligand binding function was fit, using least-squares analysis (Prism 5 software, Graphpad, USA). Experiments were repeated at least twice with independently prepared protein.

THS2 = THS2 (Papaver somniferum, UniProt A0A2U9GGW3); assay: as above; set-up: made in house; host or cells: E. coli ArcticExpress (DE3); details: Kd (ANS-protein, apparent), ANS 10 µM fixed, protein 0 to 100 µM; CBS pH 5.5; one-site hyperbolic model
Experimental: as §1

PR10-12 = details: read-out: Kd (ANS-protein, apparent); ANS 10 µM fixed, protein 0 to 100 µM; CBS pH 5.5; one-site hyperbolic model
Experimental: (§2) 8-anilino-1-naphthalenesulfonic acid (ANS) fluorescence binding curves and the binding-induced reduction in ANS fluorescence resulting from competition with tested ligands across a range of concentration facilitated the measurement of IC50 and an estimate of Kd values using the binding models and procedures described previously[70]. […] ANS was dissolved in dimethylsufoxide at a concentration of 20 mM, stored at −20 °C until dilution and protected from exposure to light. […] 40 µl of the ANS solution and 40 µl of each MLP/PR10 protein solution were combined to 80 µl final reaction volumes, which were incubated at 21 °C for 10 min to allow equilibration of binding. Triplicate 18-µl aliquots were withdrawn from each 80 µl reaction, transferred to optically clear PCR tubes (Diamed, Canada) and ANS fluorescence was measured following an additional 3-min incubation at 30 °C using a Qiagen Rotor-gene Q 6-plex with excitation and emission filters of 365 ± 20 nm and 460 ± 20 nm, respectively. An identical reaction series whereby protein was omitted from the mixtures was measured under identical conditions and trace fluorescence was subtracted from each MLP/PR10 protein-containing sample. […]

MLP15 [3] = target: T2, MLP15 (Papaver somniferum, UniProt P19825); assay: ANS fluorescence binding curve (direct ANS-protein affinity); set-up: made in house; host or cells: E. coli ArcticExpress (DE3); details: Kd (ANS-protein, apparent), ANS 10 µM fixed, protein 0 to 100 µM; CBS pH 5.5; one-site hyperbolic model
T2 sequence (P19825 1-159): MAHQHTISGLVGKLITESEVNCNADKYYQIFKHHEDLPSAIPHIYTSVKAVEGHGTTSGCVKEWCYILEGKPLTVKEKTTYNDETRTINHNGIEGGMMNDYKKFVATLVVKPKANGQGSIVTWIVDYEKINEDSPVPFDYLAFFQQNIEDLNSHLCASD
Experimental: as §1

MLP15 [4] = target: T2, MLP15; assay: Isothermal titration calorimetry; type: binding; set-up: made in house; host or cells: E. coli ArcticExpress (DE3); details: ITC, CBS pH 5.5, 25 °C
Experimental: ITC experiments were conducted using a Microcal VP instrument (Malvern Pananalytical, Malvern, UK). […] Dialysis was carried out in boiled Spectra/Por 1 6–8 kDa MWCO 0.32 ml/cm (Spectrum Labs, USA) tubing thoroughly washed with either buffer before use. The second 1000-fold volume of dialysis buffer was filtered and degassed using a reusable bottle-top filtration apparatus (Nalgene, USA) with disposable […] cellulose filters (VWR, Canada) prior to storage at 4 °C. Ligands were dissolved in the filtered dialysis buffer at 21 °C for approximately one hour, and any insoluble material was removed by repeated centrifugation at 21,000 × g for 10 min. […] Prior to ITC, which was initiated immediately following dialysis, the protein solutions were centrifuged at 17,000 × g and 4 °C for 30 min. Any precipitate was separated from the remaining soluble protein fraction which was quantified by absorption at A280nm and diluted with filtered dialysis buffer immediately before use.
Thermograms were recorded at 25 °C, with a reference power of 10 (dpu/sec) and monitoring of 30 injections of 9 µl BIA ligand solutions into a sample cell containing 1.4 ml of an MLP/PR10 protein solution, with 300 seconds between injections. […] To ensure that we report only the heat of reaction for each interaction, independent titrations of ligand into buffer, and buffer into protein solutions, were used to calculate and then subtract heats of dilution. After subtraction, binding isotherms were analyzed in MicroCal Origin 7 (MicroCal, USA) by fitting a single-site binding model using non-linear least squares regression analysis repeated until convergence. […] Each ITC experiment was repeated 2 to 4 times.

PR10-10 = target: T3, PR10-10 (Papaver somniferum, UniProt A0A9Y2YA81); assay: ANS fluorescence binding curve (direct ANS-protein affinity); details: weak signal, Kd not determined
T3 sequence (A0A9Y2YA81 1-158): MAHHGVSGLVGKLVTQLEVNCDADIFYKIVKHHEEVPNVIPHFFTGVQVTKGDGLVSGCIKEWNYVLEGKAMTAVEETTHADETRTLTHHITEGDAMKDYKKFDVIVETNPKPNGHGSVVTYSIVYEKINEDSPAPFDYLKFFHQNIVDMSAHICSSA
Experimental: as §1

PR10-4 = details: read-out: Kd (ANS-protein, apparent); ANS 10 µM fixed, protein 0 to 100 µM; CBS pH 5.5; one-site hyperbolic model
Experimental: as §2

MLP2 = details: read-out: Kd (ANS-protein, apparent); ANS 10 µM fixed, protein 0 to 100 µM; CBS pH 5.5; one-site hyperbolic model
Experimental: as §2

THS = details: cited from earlier work

T1 sequence (P0DYP9 entry or part of it): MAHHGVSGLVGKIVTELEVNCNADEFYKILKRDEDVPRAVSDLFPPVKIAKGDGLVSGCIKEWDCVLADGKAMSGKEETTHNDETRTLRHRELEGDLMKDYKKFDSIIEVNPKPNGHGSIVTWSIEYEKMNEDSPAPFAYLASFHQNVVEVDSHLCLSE
THS2, sequence (A0A2U9GGW3 whole entry): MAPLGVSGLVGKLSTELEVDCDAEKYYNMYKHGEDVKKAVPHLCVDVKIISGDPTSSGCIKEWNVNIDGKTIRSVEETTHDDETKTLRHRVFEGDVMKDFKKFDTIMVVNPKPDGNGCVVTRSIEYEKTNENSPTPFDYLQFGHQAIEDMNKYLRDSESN

**Q.** Which Km (NISO [1]) does the source give for `COc1ccc2c3c1O[C@H]1C(=O)C=C[C@H]4[C@@H](C2)N(C)CC[C@]314` [codeinone] here?
**A.** 48 µM

**Q.** For `O=S(=O)(O)c1cccc2cccc(Nc3ccccc3)c12` [ANS, 8-anilinonaphthalene-1-sulfonic acid], which Kd (NISO [2]) is on record?
**A.** 61 µM and 60.5 µM

**Q.** What about the Kd (THS2) of the same compound?
**A.** 21 µM and 20.9 µM

**Q.** What about the Kd (PR10-12) of the same compound?
**A.** 356 ± 139 µM

**Q.** What about the Kd (MLP15 [3]) of the same compound?
**A.** 78 µM and 78.4 µM

**Q.** And the ΔH (MLP15 [4])?
**A.** -14.69 ± 0.4972 kcal/mol

**Q.** What about the ΔS (MLP15 [4]) of the same compound?
**A.** -29.8 cal/mol/˚K

**Q.** And the Kd (MLP15 [4]; single-site model)?
**A.** 55.3 ± 2.8 µM

**Q.** And the N (MLP15 [4]; single-site model)?
**A.** 1.06 ± 0.0244

**Q.** And the “ANS binding to PR10-10 (in words)” value (PR10-10)?
**A.** did not bind ANS in a typical manner

**Q.** And the Kd (PR10-4)?
**A.** 107 ± 15.3 µM

**Q.** What about the Kd (MLP2) of the same compound?
**A.** 28.6 ± 3.9 µM

**Q.** For `COC1=C[C@]23CCN(C)[C@H](Cc4ccc(OC)c(O)c42)C3=C[C@@H]1OC(C)=O` [salutaridinol-7-O-acetate], which “KA (substrate kinetics)” value (THS) is on record?
**A.** 22 µM
